Test results from DBAASP.
≈ marks a conversion by molar mass, not a printed value. Each block holds one compound with its values, some of them ahead of it.

Legend:
Experiment in all cases: ≥ marks a high value that may be exact or a test limit, other limits are often not marked, values filed in µg/mL are converted to µM
Aspergillus niger = tested on: Aspergillus niger
Penicillium expansum = tested on: Penicillium expansum
[1] = tested on: Pseudomonas aeruginosa ATCC 27853
[2] = tested on: Bacillus subtilis ATCC 23857
[3] = tested on: Staphylococcus epidermidis ATCC 12228
[4] = tested on: Escherichia coli ATCC 25922
Escherichia coli ESBL = tested on: Escherichia coli ESBL
[5] = tested on: Staphylococcus aureus ATCC 29213
[6] = tested on: Klebsiella pneumoniae ATCC 700603
[7] = tested on: Candida albicans ATCC 14053
[8] = tested on: Escherichia coli ATCC 43827
[9] = tested on: Candida parapsilosis ATCC 22019
Candida krusei ATCC 6258 = tested on: Candida krusei ATCC 6258
[10] = tested on: Candida tropicalis ATCC 750
Pseudomonas aeruginosa = tested on: Pseudomonas aeruginosa
Staphylococcus aureus MR = tested on: Staphylococcus aureus MR
[11] = tested on: Cronobacter sakazakii ATCC 29544
[12] = tested on: Candida glabrata ATCC 2001
[13] = tested on: Staphylococcus aureus CCARM 3518
[14] = tested on: Pseudomonas aeruginosa 4007
[15] = tested on: Escherichia coli CCARM 1229
[16] = tested on: Staphylococcus aureus CCARM 3090
[17] = tested on: Escherichia coli CCARM 1238
[18] = tested on: Candida albicans KCTC 7270
[19] = tested on: Pseudomonas aeruginosa 4891
[20] = tested on: Trichosporon beigelii KCTC 7707
[21] = tested on: Bacillus subtilis VKM B-886
[22] = tested on: Bacillus megaterium VKM41
[23] = tested on: Micrococcus luteus VKM B-1314
Escherichia coli C600 = tested on: Escherichia coli C600
[24] = tested on: Staphylococcus aureus 209P
[25] = tested on: Pseudomonas aeruginosa PAO1
[26] = tested on: Escherichia coli BL21(DE3)
[27] = tested on: Bacillus licheniformis VK21
Escherichia coli ML-35p = tested on: Escherichia coli ML-35p
Acinetobacter baumannii = tested on: Acinetobacter baumannii
[28] = tested on: Staphylococcus aureus LAC
[29] = tested on: Staphylococcus aureus ATCC 80958
[30] = tested on: Escherichia coli ATCC 35218
[31] = tested on: Serratia marcescens ATCC 13880
[32] = tested on: Klebsiella oxytoca ATCC 13182
[33] = tested on: Staphylococcus aureus KCTC 1621
[34] = tested on: Staphylococcus aureus KCCM 40510
[35] = tested on: Staphylococcus epidermidis KCTC 1917
[36] = tested on: Enterococcus faecalis ATCC 51575
[37] = tested on: Enterococcus faecium ATCC 51559
[38] = tested on: Escherichia coli KCTC 1682
[39] = tested on: Bacillus subtilis KCTC 3068
[40] = tested on: Salmonella typhimurium KCTC 1926
[41] = tested on: Enterococcus faecalis KCCM 29212
[42] = tested on: Pseudomonas aeruginosa KCTC 1637
[43] = tested on: Enterococcus faecium KCCM 12118

MIC (Aspergillus niger): 26.6 µM (≈ 50 µg/mL) | MIC (Penicillium expansum): 13.3 µM (≈ 25 µg/mL)
SMILES: CC(C)C[C@H](NC(=O)[C@H](Cc1ccccc1)NC(=O)[C@H](CCCN=C(N)N)NC(=O)[C@@H]1CCCN1C(=O)[C@H](C)NC(=O)[C@H](Cc1c[nH]c2ccccc12)NC(=O)[C@H](Cc1c[nH]c2ccccc12)NC(=O)[C@H](C)NC(=O)[C@H](CCCN=C(N)N)NC(=O)[C@H](Cc1ccccc1)NC(=O)[C@H](Cc1ccccc1)NC(=O)[C@H](CCCCN)NC(=O)[C@@H](N)CCCCN)C(=O)N[C@@H](CCCCN)C(N)=O [KKFFRAWWAPRFLK]

MIC [1]: 32 µM (≈ 30.5 µg/mL) | MIC [2]: ≥ 32 µM | MIC [3]: 64 µM (≈ 61 µg/mL) | MIC [4]: 32 µM (≈ 30.5 µg/mL) | MIC (Escherichia coli ESBL): ≥ 32 µM | MIC [5]: 128 µM (≈ 122 µg/mL) | MIC [6]: 64 µM (≈ 61 µg/mL) | MIC [7]: ≥ 63.9 µM | MIC [8]: ≥ 32 µM | MIC [9]: ≥ 63.9 µM | MIC (Candida krusei ATCC 6258): 31.4 µM (≈ 30 µg/mL) | MIC [10]: 15.7 µM (≈ 15 µg/mL) | MIC (Pseudomonas aeruginosa): 32 µM (≈ 30.5 µg/mL) | MIC (Staphylococcus aureus MR): ≥ 128 µM | MIC [11]: ≥ 64 µM | MIC [12]: 31.4 µM (≈ 30 µg/mL)
SMILES: CC(C)C[C@H](NC(=O)[C@H](Cc1cnc[nH]1)NC(=O)[C@H](CC(C)C)NC(=O)[C@H](CO)NC(=O)[C@H](CC(C)C)NC(=O)[C@H](CCCCN)NC(=O)[C@H](Cc1ccccc1)NC(=O)[C@@H]1CCCN1)C(N)=O [PFKLSLHL]

MIC [13]: 4 µM (≈ 11 µg/mL) | MIC [14]: 2 µM (≈ 5.51 µg/mL) | MIC [15]: 2 µM (≈ 5.51 µg/mL) | MIC [16]: 4 µM (≈ 11 µg/mL) | MIC [17]: 2 µM (≈ 5.51 µg/mL) | MIC [18]: ≥ 32 µM | MIC [19]: 4 µM (≈ 11 µg/mL) | MIC [20]: ≥ 32 µM
SMILES: CC[C@H](C)[C@H](NC(=O)[C@H](C)NC(=O)[C@H](CCC(=O)O)NC(=O)[C@H](Cc1cnc[nH]1)NC(=O)[C@@H](NC(=O)[C@H](CCCCN)NC(=O)[C@H](CCC(N)=O)NC(=O)[C@H](Cc1ccccc1)NC(=O)[C@@H](NC(=O)[C@H](CCCCN)NC(=O)[C@H](CCCCN)NC(=O)[C@H](CC(C)C)NC(=O)[C@H](C)NC(=O)[C@H](CC(N)=O)NC(=O)[C@H](CC(C)C)NC(=O)CN)C(C)C)[C@@H](C)CC)C(=O)N[C@@H](CCCCN)C(=O)N[C@@H](CC(C)C)C(=O)N[C@H](C(=O)N[C@@H](CC(N)=O)C(=O)N[C@@H](CC(N)=O)C(=O)N[C@@H](Cc1cnc[nH]1)C(=O)N[C@H](C(=O)N[C@@H](CCC(N)=O)C(N)=O)C(C)C)[C@@H](C)CC [GLNALKKVFQKIHEAIKLINNHVQ]

MIC [21]: 16 µM (≈ 28.7 µg/mL) | MIC [22]: 16 µM (≈ 28.7 µg/mL) | MIC [23]: 16 µM (≈ 28.7 µg/mL) | MIC (Escherichia coli C600): ≥ 64 µM | MIC [24]: 16 µM (≈ 28.7 µg/mL) | MIC [5]: > 16 µM | MIC [25]: > 64 µM | MIC [26]: ≥ 64 µM | MIC [27]: 16 µM (≈ 28.7 µg/mL) | MIC (Escherichia coli ML-35p): ≥ 64 µM | MIC (Acinetobacter baumannii): ≥ 64 µM
SMILES: CC[C@H](C)[C@H](NC(=O)[C@H](C)NC(=O)[C@@H](NC(=O)CNC(=O)[C@@H](NC(=O)[C@H](CC(N)=O)NC(=O)[C@H](CCCCN)NC(=O)[C@H](C)NC(=O)CNC(=O)[C@H](CC(=O)O)NC(=O)[C@H](Cc1c[nH]c2ccccc12)NC(=O)[C@@H](NC(=O)[C@H](CO)NC(=O)[C@H](CO)NC(=O)[C@H](Cc1c[nH]c2ccccc12)NC(=O)[C@H](Cc1ccccc1)NC(=O)CN)C(C)C)C(C)C)[C@@H](C)O)C(=O)O [GFWSSVWDGAKNVGTAI]

MIC [4]: > 104 µM | MIC [28]: ≥ 104 µM
SMILES: NC(N)=NCCC[C@H](NC(=O)[C@H](CCCN=C(N)N)NC(=O)[C@H](CCCN=C(N)N)NC(=O)[C@H](CCCN=C(N)N)NC(=O)[C@H](Cc1ccccc1)NC(=O)[C@H](Cc1ccccc1)NC(=O)[C@H](Cc1ccccc1)NC(=O)[C@@H](N)Cc1ccccc1)C(=O)O [FFFFRRRR]

MIC [29]: 30 µM (≈ 59.6 µg/mL) | MIC [6]: > 30 µM | MIC [30]: 30 µM (≈ 59.6 µg/mL) | MIC [31]: 30 µM (≈ 59.6 µg/mL) | MIC [32]: 30 µM (≈ 59.6 µg/mL)
SMILES: CC[C@H](C)[C@H](NC(=O)[C@H](Cc1ccc(O)cc1)NC(=O)[C@H](Cc1ccc(O)cc1)NC(=O)[C@H](CO)NC(=O)CNC(=O)CNC(=O)[C@H](CC(N)=O)NC(=O)[C@H](CCCN=C(N)N)NC(=O)[C@H](CC(C)C)NC(=O)[C@H](Cc1ccccc1)NC(=O)[C@H](CC(N)=O)NC(=O)CN)C(=O)N[C@H](C(=O)N1CCC[C@H]1C(=O)N[C@@H](C)C(=O)N[C@@H](Cc1ccccc1)C(=O)N[C@@H](CCCN=C(N)N)C(=O)NCC(=O)O)C(C)C [GNFLRNGGSYYIVPAFRG]

MIC [33]: 3.65 µM (≈ 4 µg/mL) | MIC [34]: 3.65 µM (≈ 4 µg/mL) | MIC [35]: 3.65 µM (≈ 4 µg/mL) | MIC [36]: 3.65 µM (≈ 4 µg/mL) | MIC [37]: 0.913 µM (≈ 0.999 µg/mL) | MIC [38]: 3.65 µM (≈ 4 µg/mL) | MIC [39]: 1.83 µM (≈ 2 µg/mL) | MIC [40]: 3.65 µM (≈ 4 µg/mL) | MIC [41]: 1.83 µM (≈ 2 µg/mL) | MIC [42]: 7.3 µM (≈ 7.99 µg/mL) | MIC [43]: 1.83 µM (≈ 2 µg/mL)
SMILES: CC[C@H](C)[C@H](NC(=O)[C@H](CC(C)C)NC(=O)[C@H](CC(C)C)NC(=O)[C@@H](N)CC(C)C)C(=O)N[C@H](C(=O)N[C@@H](CC(C)C)C(=O)N[C@@H](CCCN=C(N)N)C(=O)N[C@@H](CCCCN)C(=O)N[C@@H](CCCCN)C(N)=O)C(C)C [LLLIVLRKK]
